From PMC11995724, “Antibiotic target discovery by integrated phenotypic and activity-based profiling of electrophilic fragments” (Cell chemical biology, 2025)
Structures can show the parent of a compound that is named as a salt.

Assay: in vitro
Details: human, hek293t cells

Row | Compound | viability at 48 h, 25 µM [%]
1 | C=CC(=O)N1Cc2cnn(C)c2C1 [3-P14, 1-{1-methyl-1H,4H,5H,6H-pyrrolo[3,4-c]pyrazol-5-yl}prop-2-en-1-one] | 87.3
2 | C=CC(=O)NCc1oc(CC)nc1C [3-P15, N-[(2-ethyl-4-methyl-1,3-oxazol-5-yl)methyl]prop-2-enamide] | 74.7
3 | C=CC(=O)N(CC)Cc1nc2ccsc2c(=O)[nH]1 [3-P16, N-ethyl-N-({4-oxo-3H,4H-thieno[3,2-d]pyrimidin-2-yl}methyl)prop-2-enamide] | 78.2
4 | C=CC(=O)NC(C)c1ccc(-n2nc(C)cc2C)c(F)c1 (centres unmarked) [3-P17, N-{1-[4-(3,5-dimethyl-1H-pyrazol-1-yl)-3-fluorophenyl]ethyl}prop-2-enamide] | 76.1
5 | C=CC(=O)NC1CS(=O)(=O)C1 [3-P18, N-(1,1-dioxo-1lambda6-thietan-3-yl)prop-2-enamide] | 105
6 | C=CC(=O)NCc1ccccc1-n1nc(C)cc1C [3-P19, N-{[2-(3,5-dimethyl-1H-pyrazol-1-yl)phenyl]methyl}prop-2-enamide] | 59.1
7 | C=CC(=O)N1CCN(c2nccn(C)c2=O)CC1 [3-P20, 1-methyl-3-[4-(prop-2-enoyl)piperazin-1-yl]-1,2-dihydropyrazin-2-one] | 181
8 | C=CC(=O)N1CCC(n2nc(C)nc2O)CC1 [3-P21, 1-[4-(5-hydroxy-3-methyl-1H-1,2,4-triazol-1-yl)piperidin-1-yl]prop-2-en-1-one] | 49.8
9 | C=CC(=O)NCc1ccc(-c2noc(C)n2)cc1 [3-P22, N-{[4-(5-methyl-1,2,4-oxadiazol-3-yl)phenyl]methyl}prop-2-enamide] | 94.1
10 | Cc1ccc(N(CCC#N)C(=O)CCl)cc1C [4-A03, 2-chloro-N-(2-cyanoethyl)-N-(3,4-dimethylphenyl)acetamide] | 0.265
11 | CC(Cl)C(=O)Nc1ccc(F)c(Cl)c1 (centres unmarked) [4-A04, 2-chloro-N-(3-chloro-4-fluorophenyl)propanamide] | 56.5
12 | O=C(CCl)NCc1cc([N+](=O)[O-])ccc1O [4-A05, 2-chloro-N-[(2-hydroxy-5-nitrophenyl)methyl]acetamide] | 1.29
13 | O=C(CCl)Nc1sc2c(c1C(=O)c1ccccc1)CCCC2 [4-A06, N-(3-benzoyl-4,5,6,7-tetrahydro-1-benzothiophen-2-yl)-2-chloroacetamide] | 0.213
14 | Cc1ccc(NC(=O)CCl)c([N+](=O)[O-])c1 [4-A07, 2-chloro-N-(4-methyl-2-nitrophenyl)acetamide] | 2.99
15 | O=C(CCl)NC(c1ccccc1)c1ccco1 (centres unmarked) [4-A08, 2-chloro-N-[(furan-2-yl)(phenyl)methyl]acetamide] | 2.75
16 | Cc1ccc(NC(=O)CCl)cc1S(=O)(=O)N(C)C [4-A09, 2-chloro-N-[3-(dimethylsulfamoyl)-4-methylphenyl]acetamide] | -0.165
17 | O=C(CCl)NCCN1C(=O)SC(=Cc2ccccc2F)C1=O [4-A10, 2-chloro-N-(2-{5-[(2-fluorophenyl)methylidene]-2,4-dioxo-1,3-thiazolidin-3-yl}ethyl)acetamide] | -0.106
18 | COc1ccc(-c2csc(NC(=O)CCl)n2)c(O)c1 [4-A11, 2-chloro-N-[4-(2-hydroxy-4-methoxyphenyl)-1,3-thiazol-2-yl]acetamide] | -0.257
19 | CC(Cl)C(=O)Nc1ccc(S(=O)(=O)N2CCCCC2)cc1 (centres unmarked) [4-A12, 2-chloro-N-[4-(piperidine-1-sulfonyl)phenyl]propanamide] | 64.8

Row | Compound | viability at 48 h, 25 µM [%]
20 | COc1ccc(C(NC(=O)CCl)C(C)C)cc1 (centres unmarked) [4-A13, 2-chloro-N-[1-(4-methoxyphenyl)-2-methylpropyl]acetamide] | 11.2
21 | CC(Cl)C(=O)Nc1ccc(Cl)cc1C(F)(F)F (centres unmarked) [4-A14, 2-chloro-N-[4-chloro-2-(trifluoromethyl)phenyl]propanamide] | 50.2
22 | NC(=O)CSc1ccccc1NC(=O)CCl [4-A15, 2-{[2-(2-chloroacetamido)phenyl]sulfanyl}acetamide] | 1.71
23 | Cc1cc(C(C)(C)C)cc(C)c1CCNC(=O)CCl [4-A16, N-[2-(4-tert-butyl-2,6-dimethylphenyl)ethyl]-2-chloroacetamide] | 0.58
24 | CC(C)Cc1nnc(NC(=O)CCl)s1 [4-A17, 2-chloro-N-[5-(2-methylpropyl)-1,3,4-thiadiazol-2-yl]acetamide] | 0.521
25 | CN(CC(=O)NCc1ccco1)C(=O)CCl [4-A18, 2-chloro-N-({[(furan-2-yl)methyl]carbamoyl}methyl)-N-methylacetamide] | 0.0249
26 | COc1ccc2cc(CN(C)C(=O)CCl)ccc2c1 [4-A19, 2-chloro-N-[(6-methoxynaphthalen-2-yl)methyl]-N-methylacetamide] | -0.134
27 | O=C(CCl)Nc1cc(-c2ccccc2)nn1-c1ccccc1 [4-A20, 2-chloro-N-(1,3-diphenyl-1H-pyrazol-5-yl)acetamide] | 0.296
28 | Cc1ccc(Oc2ccc(Cl)cc2NC(=O)CCl)cc1 [4-A21, 2-chloro-N-[5-chloro-2-(4-methylphenoxy)phenyl]acetamide] | 98.6
29 | O=C(CCl)N1N=C(c2ccccc2)CC1c1ccc2nccnc2c1 (centres unmarked) [4-A22, 2-chloro-1-[3-phenyl-5-(quinoxalin-6-yl)-4,5-dihydro-1H-pyrazol-1-yl]ethan-1-one] | 0.127
30 | CC(NC(=O)CCl)c1ccc2c(c1)CCCC2 (centres unmarked) [4-B03, 2-chloro-N-[1-(5,6,7,8-tetrahydronaphthalen-2-yl)ethyl]acetamide] | 1.06
31 | O=C(CCl)Nc1cc(C(=O)O)cc(C(=O)O)c1 [4-B04, 5-(2-chloroacetamido)benzene-1,3-dicarboxylic acid] | 107
32 | CN(CC(=O)Nc1ccc(F)cc1)C(=O)CCl [4-B05, 2-chloro-N-{[(4-fluorophenyl)carbamoyl]methyl}-N-methylacetamide] | 0.41
33 | O=C(CCl)Nc1cc(Cl)c(Cl)cc1Cl [4-B06, 2-chloro-N-(2,4,5-trichlorophenyl)acetamide] | 0.135
34 | CC(NC(=O)c1ccccc1NC(=O)CCl)c1ccccc1 (centres unmarked) [4-B07, 2-(2-chloroacetamido)-N-(1-phenylethyl)benzamide] | 0.478
35 | COc1ccc(NC(=O)CCl)cc1S(=O)(=O)N1CCCCC1 [4-B08, 2-chloro-N-[4-methoxy-3-(piperidine-1-sulfonyl)phenyl]acetamide] | 0.454
36 | Cc1cccc(Cc2cnc(NC(=O)CCl)s2)c1 [4-B09, 2-chloro-N-{5-[(3-methylphenyl)methyl]-1,3-thiazol-2-yl}acetamide] | -0.447
37 | O=C(CCl)Nc1ccc(SC(F)F)cc1 [4-B10, 2-chloro-N-{4-[(difluoromethyl)sulfanyl]phenyl}acetamide] | -0.0257
38 | O=C(CCl)N(Cc1ccc(F)cc1)C12CC3CC(CC(C3)C1)C2 [4-B11, N-(adamantan-1-yl)-2-chloro-N-[(4-fluorophenyl)methyl]acetamide] | -0.169

Row | Compound | viability at 48 h, 25 µM [%]
39 | O=C(CCl)Nc1ccc2ccccc2c1 [4-B12, 2-chloro-N-(naphthalen-2-yl)acetamide] | 0.59
40 | Cc1ccc(C(=O)CN(C(=O)CCl)c2ccccc2)cc1 [4-B13, 2-chloro-N-[2-(4-methylphenyl)-2-oxoethyl]-N-phenylacetamide] | 0.038
41 | O=C(CCl)Nc1ccc(S(=O)(=O)Nc2nccs2)cc1 [4-B14, 2-chloro-N-{4-[(1,3-thiazol-2-yl)sulfamoyl]phenyl}acetamide] | 1.19
42 | CC(Cl)C(=O)Nc1c(C(C)C)cccc1C(C)C (centres unmarked) [4-B15, N-[2,6-bis(propan-2-yl)phenyl]-2-chloropropanamide] | 93.3
43 | CC(Cl)C(=O)Nc1c(Cl)cccc1Cl (centres unmarked) [4-B16, 2-chloro-N-(2,6-dichlorophenyl)propanamide] | 128
44 | CCOC(=O)c1ccccc1NC(=O)CCl [4-B17, ethyl 2-(2-chloroacetamido)benzoate] | 45.3
45 | O=C(CCl)Nc1ccccc1S(=O)(=O)C(F)F [4-B18, 2-chloro-N-(2-difluoromethanesulfonylphenyl)acetamide] | 38.2
46 | Cc1ccc(C(=O)c2ccccc2)c(NC(=O)CCl)c1 [4-B19, N-(2-benzoyl-5-methylphenyl)-2-chloroacetamide] | 0.105
47 | O=C(CCl)N(Cc1ccccc1)CC(F)(F)F [4-B20, N-benzyl-2-chloro-N-(2,2,2-trifluoroethyl)acetamide] | 1.12
48 | CN(C)C(CNC(=O)CCl)c1ccccc1 (centres unmarked) [4-B21, 2-chloro-N-[2-(dimethylamino)-2-phenylethyl]acetamide hydrochloride] | 79.8
49 | N#Cc1nc(-c2ccco2)oc1N1CCN(C(=O)CCl)CC1 [4-B22, 5-[4-(2-chloroacetyl)piperazin-1-yl]-2-(furan-2-yl)-1,3-oxazole-4-carbonitrile] | 0.503
50 | O=C(CCl)Nc1ccccc1C(=O)NCc1ccccc1 [4-C03, N-benzyl-2-(2-chloroacetamido)benzamide] | 0.33
51 | Cc1c(C#N)c(NC(=O)CCl)n(Cc2cccs2)c1C [4-C04, 2-chloro-N-{3-cyano-4,5-dimethyl-1-[(thiophen-2-yl)methyl]-1H-pyrrol-2-yl}acetamide] | 0.255
52 | CCN(CC)C(=O)c1ccc(NC(=O)CCl)cc1 [4-C05, 4-(2-chloroacetamido)-N,N-diethylbenzamide] | 0.463
53 | Cc1ccc(-c2cc(NC(=O)CCl)n(-c3ccccc3)n2)cc1 [4-C06, 2-chloro-N-[3-(4-methylphenyl)-1-phenyl-1H-pyrazol-5-yl]acetamide] | -0.283
54 | COc1ccc(C(C)(C)C)cc1NC(=O)CCl [4-C07, N-(5-tert-butyl-2-methoxyphenyl)-2-chloroacetamide] | 0.79
55 | CC(Cl)C(=O)N1c2ccccc2NC(=O)C1(C)C (centres unmarked) [4-C08, 4-(2-chloropropanoyl)-3,3-dimethyl-1,2,3,4-tetrahydroquinoxalin-2-one] | 69.5
56 | CCCc1ccc(-c2csc(NC(=O)CCl)n2)cc1 [4-C09, 2-chloro-N-[4-(4-propylphenyl)-1,3-thiazol-2-yl]acetamide] | 1.34
